The text below walks through data of ChEMBL document CHEMBL5543174, “A Nonbactericidal Anionic Antimicrobial Peptide Provides Prophylactic and Therapeutic Efficacies against Bacterial Infections in Mice by Immunomodulatory-Antithrombotic Duality” (J Med Chem, 2024).

Test [1] concerns Escherichia coli. Description: Antibacterial activity against Escherichia coli ATCC 25922 infected in C57BL/6 mouse assessed as reduction in IL-6 level in peritoneal fluid at 10 mg/kg,ip pre-administrated 5 hrs before bacterial infection measured after 24 hrs by ELISA. Type of test: functional, organism-based. To be noted: time 29.0 hrs. For orientation: In an ELISA, binding on a coated surface is turned into a signal by an enzyme label.

In test [2] the test system is Staphylococcus aureus. Description: Antibacterial activity against Staphylococcus aureus ATCC 25923 infected in C57BL/6 mouse assessed as reduction in TNF-alpha level in serum at 10 mg/kg,ip pre-administrated 5 hrs before bacterial infection measured after 24 hrs by ELISA. Conditions: time 29.0 hrs. The class given is functional, organism-based.
In test [3] the test system is Peritoneal macrophage. Description: Induction of chemotaxis in mouse Peritoneal macrophage assessed as upregulation of CXCL1 production at 100 ug/ml preincubated with WRW4 followed by compound addition by ELISA. The class given is functional, cell-based. Conditions: dose 100.0 µg/ml.
For test [4], the system named is Staphylococcus aureus. The test can be described thus: Antibacterial activity against Staphylococcus aureus ATCC 25923 infected in C57BL/6 mouse assessed as reduction in IL-1beta level in peritoneal fluid at 10 mg/kg,ip pre-administrated 5 hrs before bacterial infection measured after 24 hrs by ELISA. Type of test: functional, organism-based. Conditions: time 29.0 hrs.

Test [5] has as its system Mus musculus. The test can be described thus: Anticoagulation activity in mouse infected with Methicillin-resistant Staphylococcus aureus assessed as increase in plasma TFPI expression at 10 mg/kg,ip pre-administrated 5 hrs before bacterial infection measured after 24 hrs by ELISA. Type of test: functional, organism-based. Conditions: time 29.0 hrs.
Test [6] has as its system Mus musculus. Description: Anticoagulation activity in mouse assessed as change in plasma AT-III expression at 10 mg/kg,ip measured after 24 hrs by ELISA. Type of test: functional, organism-based.
Test [7] deals with Escherichia coli. The test can be described thus: Antibacterial activity against Escherichia coli ATCC 25922 infected in C57BL/6 mouse assessed as reduction in IL-1beta level in serum at 10 mg/kg,ip pre-administrated 5 hrs before bacterial infection measured after 24 hrs by ELISA. To be noted: time 29.0 hrs. The class given is functional, organism-based.
Test [8] relates to Escherichia coli. Description: Antimicrobial activity against Carbapenem-resistant Escherichia coli assessed as inhibition of microbial growth at <= 200 ug/ml incubated for 18 hrs by micro-broth dilution method. The class given is functional, organism-based. Conditions: dose <= 200.0 µg/ml. For orientation: In broth dilution the organism is exposed to a series of concentrations in liquid medium.

Test [9] deals with Neutrophil. Description: Induction of chemotaxis in mouse bone marrow derived neutrophil assessed as increase in neutrophil migration at 100 ug/ml preincubated with KN62 for 30 mins followed by compound addition measured after 8 hrs by crystal violet staining based indirect transwell assay. Conditions: dose 100.0 µg/ml. The class given is functional, cell-based.
Test [10] deals with Peritoneal macrophage. Description: Induction of phagocytosis in mouse Peritoneal macrophage assessed as increase in neutral red dye uptake by measuring optical density absorbance at 25 ug/ml incubated for 24 hrs followed by dye addition measured after 4 hrs by absorbance based assay (reference value: 0.089). The class given is functional. Conditions: dose 25 µg/ml; time 28 hrs.

In test [11] the test system is Mus musculus. Description: Anticoagulation activity in mouse infected with Carbapenem-resistant Escherichia coli assessed as increase in plasma TFPI expression at 10 mg/kg,ip administrated 5 hrs after bacterial infection measured after 24 hrs by ELISA. Type of test: functional, organism-based. Conditions: time 19.0 hrs.
The subject of test [12] is Escherichia coli. Description: Antibacterial activity against Carbapenem-resistant Escherichia coli infected in C57BL/6 mouse assessed as reduction in bacterial load at 10 mg/kg,ip pre-administrated 5 hrs before bacterial infection. Type of test: functional, organism-based.
Test [13] deals with Neutrophil. Description: Induction of chemotaxis in mouse bone marrow derived neutrophil assessed as increase in neutrophil migration at 25 to 100 ug/ml incubated for 8 hrs by crystal violet staining based direct transwell assay. Type of test: functional, cell-based. To be noted: dose 25-100 µg/ml.
Test [14] has as its system Escherichia coli. The test can be described thus: Antibacterial activity against Carbapenem-resistant Escherichia coli infected in C57BL/6 mouse with cyclophosphamide-induced neutrophil depletion model assessed as decrease in bacterial burden in peritoneal cavity at 10 mg/kg,ip pre-administrated 5 hrs before bacterial infection measured after 24 hrs. Type of test: functional, organism-based. To be noted: time 29.0 hrs.

In test [15] the test system is Peritoneal macrophage. The test can be described thus: Immunoregulatory activity in mouse Peritoneal macrophage assessed as upregulation of ERK phosphorylation incubated for 1 hr by Western blotting analysis. Type of test: functional, cell-based. (Immunoblotting shows a protein as a band on a membrane.)
Test [16] concerns Peritoneal macrophage. Description: Immunomodulatory activity in mouse Peritoneal macrophage assessed as decrease in LTA-induced IL-6 production at 25 to 100 ug/ml incubated for 6 hrs by ELISA. The class given is functional, cell-based. Conditions: dose 25-100 µg/ml.
Test [17] concerns Neutrophil. The test can be described thus: Induction of chemotaxis in mouse bone marrow derived neutrophil assessed as increase in neutrophil migration at 100 ug/ml preincubated with WRW4 for 30 mins followed by compound addition measured after 8 hrs by crystal violet staining based indirect transwell assay. Type of test: functional, cell-based. To be noted: dose 100.0 µg/ml.

In test [18] the test system is Mus musculus. The test can be described thus: Inhibition of fibrin formation in mouse infected with Methicillin-resistant Staphylococcus aureus assessed as reduction in fibrin deposition in lung at 10 mg/kg,ip pre-administrated 5 hrs before bacterial infection measured after 24 hrs by immunohistochemical analysis. Type of test: functional, organism-based. Conditions: time 29.0 hrs.

Test [19] concerns Neutrophil. Description: Induction of degranulation in mouse bone marrow derived neutrophil assessed as increase in lactoferrin release at 25 to 100 ug/ml incubated for 6 hrs by ELISA. The class given is functional, cell-based. To be noted: dose 25-100 µg/ml.
In test [20] the test system is Staphylococcus aureus. The test can be described thus: Antibacterial activity against Methicillin-resistant Staphylococcus aureus infected in C57BL/6 mouse assessed as reduction in IL-1beta level in peritoneal fluid at 10 mg/kg,ip administrated 5 hrs after bacterial infection measured after 24 hrs by ELISA. The class given is functional, organism-based. To be noted: time 19.0 hrs.

Each structure is given as a SMILES string. Calls of active or inactive are those of the source. No cut-off for these calls is given here.

Regarding `CC[C@H](C)[C@H](NC(=O)[C@@H]1CSSC[C@H](NC(=O)[C@H](CCC(=O)O)NC(=O)[C@@H](NC(=O)[C@H](CCCCN)NC(=O)[C@H](Cc2c[nH]cn2)NC(=O)[C@@H](NC(=O)[C@H](CCCCN)NC(=O)[C@H](CCC(=O)O)NC(=O)[C@H](C)NC(=O)[C@H](CCC(=O)O)NC(=O)[C@H](CCC(=O)O)NC(=O)[C@H](CCC(=O)O)NC(=O)[C@H](C)N)[C@@H](C)O)[C@@H](C)O)C(=O)N[C@@H](CC(C)C)C(=O)N[C@@H](CCC(=O)O)C(=O)N1)C(=O)N[C@@H](Cc1ccccc1)C(=O)N[C@H](C(=O)N[C@@H](CC(C)C)C(=O)N[C@@H](CC(C)C)C(=O)N1CCC[C@H]1C(=O)N1CCC[C@@H]1C(=O)N[C@H](C)C(=O)O)[C@@H](C)O`, the result in test [1], in test [2], in [3], in test [4], in [5] and in test [7] was Active. Also, the outcome in [9], in test [11], in test [12], in [17], in [19] and in test [20] was Active. Further, the result in [6], in test [8], in [13], in test [14] and in [16] was inactive. The OD in [10] amounted to 0.097. In test [15], the Activity result is “Dose-Dependent Effect”. Further, the inhibition result in test [18] was “Active”.
